Experimental data taken from patent publication US20240018146A1, “COMPOSITIONS AND METHODS OF USING THE SAME FOR TREATMENT OF NEURODEGENERATIVE AND MITOCHONDRIAL DISEASE” (MITOKININ, INC., priority 2020, published 2024).
≈ marks a conversion by molar mass, not a printed value. Like-named read-outs stand apart in the source and are kept apart here.

Columns and labels:
pS129 α-syn = experiment: Preformed fibril (PFF) model in primary neuron culture, pS129 α-syn; assay type: cell-based; conditions: increasing doses
Procedure: 4. Preformed Fibril Model
Mouse and human alpha-synuclein monomers have been sourced commercially, then pre-formed fibrils have been generated as per the detailed protocol provided by the MJFF. For in vitro experiments primary hippocampal neurons isolated from P0 pups were grown for 7 days after which PFFs at 5 ug/ml were introduced Pre-formed fibrils will be introduced via stereotactic injection into the striatum of wt (C57BL/6J, Jax #000664) and transgenic A53T mice (B6;C3-Tg(Prnp-SNCA*A53T)83Vle/J, Jax #004479). Cohorts of drug-treated (oral gavage) and untreated animals will then be allowed to age for up to 6 months, at which point they will be sacrificed and perfused. Brains will be removed and fixed, then sectioned for analysis. We anticipate that untreated A53T animals will show significant spreading of aggregated alpha-synuclein pathology and pS129 staining, as well as some possible neurodegeneration; wt animals are also expected to show pS129 synuclein staining and synuclein aggregation, albeit less than that seen in the A53T background.

[1] = Mitotoxicity / Mitotox safety margin (therapeutic window); assay type: cell-based
HeLa MKYP cells [2] = experiment: Human mitophagy assay (HeLa mKeima assay, FACS); assay type: cell-based
How it was run: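 HeLa cells carrying the pH-sensitive mtKeima tag incubated 16 h with compound at several concentrations, then 1 uM FCCP/oligomycin for 6 h. FACS detects mitochondria in lysosomes through the Keima emission shift, quantified as percentage of cells in mitophagy.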

HeLa MKYP cells [3] = experiment: Cell death measured by DAPI staining, with 1 μM FCCP/oligomycin or no toxin (no FO); assay type: cell-based; conditions: for Max cell death at 25 μM compound, 1 uM FO (%) / Cell death at 25 μM (no FO) (%): 25 μM compound
How it was run: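 HeLa MKYP cells were treated with compounds alongside 1 μM FCCP/oligomycin or no toxin for 6 or 6.5 h. Cell death was scored by DAPI staining, with H2O2 treatment as the death control.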

Kinetic solubility = assay type: physicochemical
[4] = Inspection of crystallization and round cells; assay type: physicochemical; parameters: key: 1=yes crystals; 0=no crystals
Procedure: 5. Inspection of Crystallization and Round Cells
Briefly, the Hela MKYP (Mito-Keima/YFP-Parkin) cells were seeded at 10K cells/well. EP/MTK compounds were added at seeding (cells were still in suspension). The cells were incubated with the EP/MTK compounds for 16 hours, then 1 μM FCCP/oligomycin was added for 6 hours. Prior to harvesting, cells were scored by eye under 20× magnification for the presence or absence of crystalline or aggregated compound, or round cells.

[5] = Homo sapiens, HeLa, read-out: Mitophagy induction EC50
[6] = read-out: Mitophagy induction EC50

| SMILES | pS129 α-syn (250-12) in primary neuron culture (pS129 α-syn) | pS129 α-syn (monomer) in primary neuron culture (pS129 α-syn) | pS129 α-syn in primary neuron culture (pS129 α-syn) | Mito-Safety Index (highest safe dose/EC50) [1] | Highest safe dose (μM) (mitotox or cytotox) [1] | EC50 (HeLa MKYP cells [2]; [5]) | Highest safe dose (cytotoxicity; no FO; safe means DAPI+ <20%) (HeLa MKYP cells [3]) | Max % death with 1 μM FO (HeLa MKYP cells [3]) | further results |
| --- | --- | --- | --- | --- | --- | --- | --- | --- | --- |
| COC1CN([C@@H]2COc3ccccc3[C@H]2Nc2ncnc3[nH]c(C(F)(F)F)cc23)C1 [EP-0040850] | reduces | reduces | reduces | 88.53 | 21.4 µM | 240 nM | 25.0 µM | 10.3% |  |
| C[C@@H]1CN([C@@H]2COc3cc(F)ccc3[C@H]2Nc2ncnc3[nH]c(C(F)(F)F)cc23)CCO1 [EP-0041088] | reduces | reduces | reduces | 128.93 | 15.7 µM | 120 nM | 25.0 µM | 16.2% |  |
| FC(F)(F)c1cc2c(N[C@H]3c4ccccc4CC[C@@H]3N3C4CCC3COC4)ncnc2[nH]1 [EP-0038283] |  |  |  |  |  | > 25000 nM | 8.3 µM | 98.0% | solubility kinetic (Kinetic solubility): 1 µM (≈ 0.443 µg/mL); Mitophagy EC50 (HeLa mKeima assay) (μM) (HeLa MKYP cells [2]; HeLa mKeima assay): Minimal; Max cell death at 25 μM compound, 1 uM FO (%) (HeLa MKYP cells [3]): 98%; Cell death at 25 μM (no FO) (%) (HeLa MKYP cells [3]): 9.6% |
| c1ccc2c(c1)OCC(N1CC3CCOC3C1)C2Nc1ncnc2[nH]c(C3CC3)cc12 (single isomer, unassigned) [EP-0041668] | reduces | reduces | reduces |  |  |  | 25.0 µM | 8.0% | EC50 (HeLa MKYP cells [2]; [6]): 140 nM |
| COC1CCN([C@H]2CCc3ccccc3[C@@H]2Nc2ncnc3[nH]c(C(F)(F)F)cc23)CC1 [EP-0038282] |  |  |  |  |  | > 25000 nM | 2.8 µM | 97.5% | solubility kinetic (Kinetic solubility): 134 µM (≈ 59.7 µg/mL); Mitophagy EC50 (HeLa mKeima assay) (μM) (HeLa MKYP cells [2]; HeLa mKeima assay): Minimal; Max cell death at 25 μM compound, 1 uM FO (%) (HeLa MKYP cells [3]): 97.5%; Cell death at 25 μM (no FO) (%) (HeLa MKYP cells [3]): 66.6% |
| c1coc(CNc2ncnc3[nH]cnc23)c1 [Kinetin, kinetin, reference compound] |  |  |  |  |  |  |  |  | visual inspection of crystallization ([4]; 0.1 μM compound): 0; visual inspection of crystallization ([4]; 0.3 μM compound): 0; visual inspection of crystallization ([4]; 0.9 μM compound): 0; visual inspection of crystallization ([4]; 2.8 μM compound): 0; visual inspection of crystallization ([4]; 8.3 μM compound): 0; visual inspection of crystallization ([4]; 25.0 μM compound, HeLa MKYP culture, 20× magnification): 0 |
| COC1CN([C@H]2CCc3ccccc3[C@@H]2Nc2ncnc3[nH]c(C(F)(F)F)cc23)C1 [EP-0040857] | reduces | reduces | reduces | 116.38 | 18.7 µM |  | 25.0 µM | 17.0% | EC50 (HeLa MKYP cells [2]; [6]): 160 nM |
| C[C@H]1CN([C@H]2CCc3ccccc3[C@@H]2Nc2ncnc3[nH]c(C(F)(F)F)cc23)CCO1 (single isomer, unassigned) [EP-0040503] | reduces | reduces | reduces | 69.05 | 9.1 µM | 130 nM | 25.0 µM | 7.4% |  |
| CO[C@@H]1CCN([C@H]2COc3ccccc3[C@@H]2Nc2ncnc3[nH]c(C(F)(F)F)cc23)C1 [EP-0041161] | reduces | reduces | reduces | 75.49 | 3.4 µM | 50 nM | 25.0 µM | 8.5% |  |
| c1ccc2c(c1)OC[C@H](C1CCOCC1)[C@H]2Nc1ncnc2[nH]c(C3CC3)cc12 (single isomer, unassigned) [EP-0040587] | reduces | reduces | reduces | 230.81 | 21.5 µM | 90 nM | 25.0 µM | 21.5% |  |
| c1ccc2c(c1)OCC(N1CC3CCOC3C1)C2Nc1ncnc2[nH]c(C3CC3)cc12 (single isomer, unassigned) [EP-0041670] | reduces | reduces | reduces |  |  |  | 25.0 µM | 5.4% | EC50 (HeLa MKYP cells [2]; [6]): 460 nM |
| Fc1ccc2c(c1)OC[C@H](N1C[C@@H]3COC[C@H]3C1)[C@H]2Nc1ncnc2[nH]c(C3CC3)cc12 (single isomer, unassigned) [EP-0040874] | reduces | reduces | reduces | 94.72 | 13.9 µM |  | 25.0 µM | 14.4% | EC50 (HeLa MKYP cells [2]; [6]): 150 nM |
| C[C@@H]1CN([C@H]2COc3ccccc3[C@@H]2Nc2ncnc3[nH]c(C(F)(F)F)cc23)C[C@H](C)O1 (single isomer, unassigned) [EP-0040749] |  |  |  | 48.24 | 7.1 µM | 150 nM | 25.0 µM | 34.3% |  |
| FC(F)(F)c1cc2c(N[C@@H]3c4ccccc4OC[C@H]3C3CCOCC3)ncnc2[nH]1 (single isomer, unassigned) [EP-0040700] |  |  |  | 41.37 | 4.7 µM | 110 nM | 25.0 µM | 14.1% |  |
| C[C@@H]1CN([C@@H]2COc3ccccc3[C@H]2Nc2ncnc3[nH]c(C4CC4)cc23)CCO1 [EP-0040958] |  |  |  | 29.33 | 1.7 µM | 60 nM | 25.0 µM | 14.1% |  |
| Fc1cccc2c1CC[C@@H](N1C[C@H]3COC[C@H]3C1)[C@@H]2Nc1ncnc2[nH]c(C3CC3)cc12 (single isomer, unassigned) [EP-0040577] |  |  |  | 86.01 | 1.3 µM | 20 nM | 25.0 µM | 28.6% |  |
| Fc1ccc2c(c1)CC[C@H](N1C[C@H]3COC[C@H]3C1)[C@H]2Nc1ncnc2[nH]c(C3CC3)cc12 [EP-0040601] |  |  |  | 55.12 | 10.3 µM | 190 nM | 25.0 µM | 45.3% |  |
| c1ccc2c(c1)CC[C@@H](N1CCOCC1)[C@@H]2Nc1ncnc2[nH]c(C3CC3)cc12 (single isomer, unassigned) [EP-0040109] |  |  |  | 1.01 | 25.0 µM | 24800 nM | 25.0 µM | 7.9% |  |
| CN(c1ncnc2[nH]c(C3CC3)cc12)C1c2ccccc2CCC1N1C[C@H]2COC[C@H]2C1 (some centres unmarked) [EP-0039743] |  |  |  | 5.99 | 25.0 µM | 4170 nM | 25.0 µM | 28.2% | EC50 (HeLa MKYP cells [2]; Homo sapiens, HeLa, HeLa mKeima assay, read-out: Mitophagy EC50 (HeLa mKeima assay)): 3880 nM; Max cell death at 25 μM compound, 1 uM FO (%) (HeLa MKYP cells [3]): 33.7%; Cell death at 25 μM (no FO) (%) (HeLa MKYP cells [3]): 11.6% |
| COC[C@H]1CCN([C@H]2COc3ccccc3[C@@H]2Nc2ncnc3[nH]c(C4CC4)cc23)C1 [EP-0041546] |  |  |  | 21.52 | 3.6 µM |  | 25.0 µM | 6.6% | EC50 (HeLa MKYP cells [2]; [6]): 170 nM |
